Experimental findings from the NIST ThermoML archive (doi:10.1016/j.tca.2018.04.001) are described below.

± gives the expanded uncertainty stated by the source.

The conditions of series [1]: DSC.
Series [2] in a line: Molar enthalpy of transition or fusion. As to conditions: DSC.

In the case of `CCCCCCCCCCCCCCCCCCCCC` [heneicosane], the Triple point temperature in series [1] (Crystal 1) was 313.65 ± 1 K; in series [1] (Crystal 2), 305.05 ± 1 K. Further, the “Molar enthalpy of transition or fusion” value stood at 9.93 ± 1 kcal/mol in series [2] (Crystal 1) and 3.42 ± 0.359 kcal/mol in series [2] (Crystal 2).
